In patent publication US4485100A, “Elastase inhibitors, a process for their preparation and medicaments containing these inhibitors” (Bayer Aktiengesellschaft, priority 1982, dated 1984):

Test system: Wistar rats
Assay: Aerosil-induced inflammatory reaction, paw swelling
Type: in vivo, rat
Conditions: treated 15 hours after noxa, 21 hour value
Description: The inflammatory reaction was induced by intraplantary injection of 0.1 ml of a 2% Aerosil suspension into a hind paw of Wistar rats weighing 130-160 g. The inhibitors according to the invention used for the treatment of the inflammatory reaction were dissolved in 0.9% sodium chloride solution in a concentration of 10-20 mg/ml. The experimental animals were treated by intraperitoneal, subcutaneous or intravenous injection of 0.5-1.0 ml of the solution of the inhibitors 15 hours after the inflammatory noxa had been set. The swelling of the inflamed paw, which is a measure of the severity of the inflammatory reaction, was followed with respect to time using a Kemper antiphlogmeter. The 21 hour value after the induction of inflammation (=6 hours after injection of the inhibitors according to the invention) was determined to ascertain the dose/effect relationship.

“basic pancreatic trypsin inhibitor [BPTI]” was tested, and the “Inhibition of the inflammatory reaction, swelling of inflamed paw” value was “does not inhibit the inflammatory reaction”.
